Literature values as cited in article PMC7914897, “Cytotoxic Potential of a-Azepano- and 3-Amino-3,4-SeCo-Triterpenoids” (International Journal of Molecular Sciences, 2021).

Columns and labels:
Parameters in all cases: method as in earlier work
[1] = tested on: panel of approximately 60 cancer cell lines; conditions: standard drugs; read-out: GI50 MG_MID60; cited from earlier work
[2] = tested on: Leukemia subpanel; conditions: standard drugs, read-out: GI50 MG_MID; cited from earlier work
[3] = tested on: CNS cancer subpanel; conditions: standard drugs, read-out: GI50 MG_MID; cited from earlier work
[4] = tested on: CCRF-CEM (Leukemia); conditions: cited from earlier work
[5] = tested on: MOLT-4 (Leukemia); conditions: cited from earlier work
[6] = tested on: RPMI-8226 (Leukemia); conditions: cited from earlier work
[7] = tested on: SR (Leukemia); conditions: cited from earlier work
[8] = tested on: A549/ATCC (NSC lung cancer); conditions: cited from earlier work
[9] = tested on: EKVX (NSC lung cancer); conditions: cited from earlier work
[10] = tested on: HOP-62 (NSC lung cancer); conditions: cited from earlier work
[11] = tested on: HOP-92 (NSC lung cancer); conditions: cited from earlier work
[12] = tested on: NCI-H226 (NSC lung cancer); conditions: cited from earlier work
[13] = tested on: NCI-H23 (NSC lung cancer); conditions: cited from earlier work
[14] = tested on: NCI-H460 (NSC lung cancer); conditions: cited from earlier work
[15] = tested on: NCI-H522 (NSC lung cancer); conditions: cited from earlier work
[16] = tested on: HCT-116 (Colon cancer); conditions: cited from earlier work
[17] = tested on: SW-620 (Colon cancer); conditions: cited from earlier work
[18] = tested on: SF-268 (CNS cancer); conditions: cited from earlier work
[19] = tested on: SF-295 (CNS cancer); conditions: cited from earlier work
[20] = tested on: SNB-19 (CNS cancer); conditions: cited from earlier work
[21] = tested on: SNB-75 (CNS cancer); conditions: cited from earlier work
[22] = tested on: U251 (CNS cancer); conditions: cited from earlier work
[23] = tested on: LOX IMVI (Melanoma); conditions: cited from earlier work
[24] = tested on: SK-MEL-5 (Melanoma); conditions: cited from earlier work
[25] = tested on: OVCAR-8 (Ovarian cancer); conditions: cited from earlier work
[26] = tested on: A498 (Renal cancer); conditions: cited from earlier work
[27] = tested on: ACHN (Renal cancer); conditions: cited from earlier work
[28] = tested on: RXF 393 (Renal cancer); conditions: cited from earlier work
[29] = tested on: SN12C (Renal cancer); conditions: cited from earlier work
[30] = tested on: MCF7 (Breast cancer); conditions: cited from earlier work
[31] = tested on: MDA-MB-31/ATCC (Breast cancer); conditions: cited from earlier work
[32] = tested on: T-47D (Breast cancer); conditions: cited from earlier work
[33] = tested on: MDA-MB-468 (Breast cancer); conditions: cited from earlier work

In the case of `COc1cccc2c1C(=O)c1c(O)c3c(c(O)c1C2=O)C[C@@](O)(C(=O)CO)C[C@@H]3O[C@H]1C[C@H](N)[C@H](O)[C@H](C)O1` [DRB, doxorubicin], the GI50 [1] is listed as 380 nM, the GI50 [2] is listed as 80 nM and the GI50 [3] is listed as 80 nM. The GI50 [4] was 80 nM, the GI50 [5] was 30 nM and the GI50 [6] was 80 nM. For the same compound, the GI50 [7] was 30 nM, the GI50 [8] was 60 nM and the GI50 [9] was 410 nM. For the same compound, the GI50 [10] was 70 nM, the GI50 [11] was 100 nM and the GI50 [12] was 50 nM. For the same compound, the GI50 [13] was 150 nM, the GI50 [14] was 20 nM and the GI50 [15] was 30 nM. For the same compound, the GI50 [16] was 80 nM, the GI50 [17] was 90 nM and the GI50 [18] was 100 nM. The GI50 [19] was 100 nM, the GI50 [20] was 40 nM and the GI50 [21] was 70 nM. For the same compound, the GI50 [22] was 40 nM, the GI50 [23] was 70 nM and the GI50 [24] was 80 nM. The GI50 [25] was 100 nM, the GI50 [26] was 100 nM and the GI50 [27] was 80 nM. The GI50 [28] was 100 nM, the GI50 [29] was 70 nM and the GI50 [30] was 30 nM. For the same compound, the GI50 [31] was 510 nM, the GI50 [32] was 60 nM and the GI50 [33] was 50 nM.
